Consider 21 compounds from ChEMBL document CHEMBL3046327, “Nicotinic acid hydrazones: a novel anticonvulsant pharmacophore” (Med Chem Res, 2011).

Data set [1] concerns Mus musculus. Description: Neurotoxicity in Mus musculus C57B/6 (mouse) assessed motor impairment at 300 mg/kg, ip after 0.5 hr by rotarod test. The data set is classed as toxicity, organism-based. Also noted: dose 300 mg/kg, route intraperitoneal. The settings on record: in vivo.
The test system of data set [2] is Mus musculus. The data set is described as follows: Neurotoxicity in Mus musculus C57B/6 (mouse) assessed motor impairment at 300 mg/kg, ip after 4 hr by rotarod test. Set-up: dose 300 mg/kg, route intraperitoneal. The following applies: in vivo. It counts as toxicity, organism-based.
The test system of data set [3] is Mus musculus. Description: Anticonvulsant activity in Mus musculus C57B/6 (mouse) assessed protection against subcutaneous pentylenetetrazole-induced seizures at 300 mg/kg, ip after 4 hr. It counts as functional, organism-based. Also noted: dose 300 mg/kg.
The test system of data set [4] is Mus musculus. Description: Anticonvulsant activity in Mus musculus C57B/6 (mouse) assessed protection against subcutaneous pentylenetetrazole-induced seizures at 300 mg/kg, ip after 0.5 hr. It counts as functional, organism-based. Set-up: dose 300 mg/kg.
Data set [5] relates to Mus musculus. Description: Anticonvulsant activity in Mus musculus C57B/6 (mouse) assessed protection against maximal electroshock-induced seizures at 300 mg/kg, ip after 4 hr. The data set is classed as functional, organism-based. Set-up: dose 300 mg/kg.
Data set [6] relates to Mus musculus. Description: Anticonvulsant activity in Mus musculus C57B/6 (mouse) assessed protection against maximal electroshock-induced seizures at 300 mg/kg, ip after 0.5 hr. The data set is classed as functional, organism-based. Also noted: dose 300 mg/kg.
Data set [7] concerns Mus musculus. Description: Anticonvulsant activity in ip dosed Mus musculus C57B/6 (mouse) assessed protection against maximal electroshock-induced seizures after 4 hr. The settings on record: C57B/6, ip, read-out: MED. The data set is classed as functional.
The species named for data set [8] is Mus musculus. Description: Protective index, ratio of TD50 for Mus musculus C57B/6 (mouse) to ED50 for Mus musculus C57B/6 (mouse) assessed protection against 6 Hz psychomotor seizure by minimal clonic seizure test. The data set is classed as functional.
Data set [9] deals with Mus musculus. The data set is described as follows: Anticonvulsant activity in ip dosed Mus musculus C57B/6 (mouse) assessed protection against 6 Hz psychomotor seizure after 0.25 hr by minimal clonic seizure test. The data set is classed as functional. The following applies: C57B/6, ip, read-out: MED.
For data set [10], the system named is Mus musculus. Description: Anticonvulsant activity in ip dosed Mus musculus C57B/6 (mouse) assessed protection against 6 Hz psychomotor seizure after 0.5 hr by minimal clonic seizure test. It counts as functional. The settings on record: C57B/6, ip, read-out: MED.
Data set [11] deals with Mus musculus. The data set is described as follows: Anticonvulsant activity in ip dosed Mus musculus C57B/6 (mouse) assessed protection against 6 Hz psychomotor seizure by minimal clonic seizure test. The data set is classed as functional. The following applies: C57B/6, ip.
Data set [12] concerns Mus musculus. The data set is described as follows: Anticonvulsant activity in ip dosed Mus musculus C57B/6 (mouse) assessed protection against maximal electroshock-induced seizures after 0.5 hr. The data set is classed as functional. The following applies: C57B/6, ip, read-out: MED.
Data set [13] can be described thus: Neurotoxicity in ip dosed Mus musculus C57B/6 (mouse) assessed motor impairment by rotarod test. It counts as toxicity, organism-based. The following applies: in vivo.
The test system of data set [14] is Mus musculus. The data set is described as follows: Neurotoxicity in ip dosed Mus musculus C57B/6 (mouse) assessed motor impairment after 4 hr by rotarod test. It counts as toxicity, organism-based. The settings on record: in vivo.
Data set [15] has as its system Mus musculus. Description: Neurotoxicity in ip dosed Mus musculus C57B/6 (mouse) assessed motor impairment after 0.5 hr by rotarod test. It counts as toxicity, organism-based. The settings on record: in vivo.
For data set [16], the system named is Rattus norvegicus. The data set is described as follows: Anticonvulsant activity in po dosed Rattus norvegicus Sprague-Dawley (rat) assessed protection against 6 Hz psychomotor seizure by minimal clonic seizure test. It counts as functional.
A short description of data set [17]: Neurotoxicity in po dosed Rattus norvegicus Sprague-Dawley (rat) assessed motor impairment by rotarod test. The data set is classed as toxicity, organism-based. The settings on record: in vivo.
Data set [18] is filed under the species Rattus norvegicus. The data set is described as follows: Protective index, ratio of TD50 for Rattus norvegicus Sprague-Dawley (rat) to ED50 for Rattus norvegicus Sprague-Dawley (rat) assessed protection against 6 Hz psychomotor seizure by minimal clonic seizure test. It counts as functional.

The source made the active and inactive calls. The rule behind the calls is not given here. Where only a bound is given, the exact number is not on record here.

As for `Cc1ccc(C(=O)N/N=C/c2cccc(Br)c2)cc1`, the Activity result in the data set with Mus musculus [1] and with Mus musculus [2] was “Non-toxic” each time. The outcome with Mus musculus [3], in the data set with Mus musculus [4], in the data set on Mus musculus [5] and in the data set with Mus musculus [6] was inactive.

As to `O=C(N/N=C/c1ccccc1Br)c1ccncc1`, the Activity result in the data set with Mus musculus [1] and in the data set with Mus musculus [2] was “Non-toxic” each time. Besides, the result in the data set on Mus musculus [3], in the data set with Mus musculus [4], with Mus musculus [5] and with Mus musculus [6] was inactive.

With `O=C(N/N=C/c1ccc([N+](=O)[O-])cc1)c1ccncc1` [N'-(4-NITROBENZYLIDENE)ISONICOTINOHYDRAZIDE], the Activity entry in the data set on Mus musculus [1] and in the data set with Mus musculus [2] was “Non-toxic” in each case. Further, the outcome with Mus musculus [3], with Mus musculus [4], in the data set on Mus musculus [5] and in the data set on Mus musculus [6] was inactive.

Take `O=C(N/N=C/c1cccc(Br)c1)c1ccccc1`: the Activity result in the data set with Mus musculus [1] and in the data set on Mus musculus [2] was “Non-toxic” each time. The outcome in the data set with Mus musculus [3], with Mus musculus [4], in the data set on Mus musculus [5] and with Mus musculus [6] was inactive.

Regarding `O=C(N/N=C/c1ccccc1F)c1ccccc1`, the Activity result in the data set on Mus musculus [1] and in the data set with Mus musculus [2] was “Non-toxic” throughout. Moreover, the result in the data set with Mus musculus [3], in the data set with Mus musculus [4], in the data set on Mus musculus [5] and in the data set with Mus musculus [6] was inactive.

Regarding `O=C(N/N=C/c1cccc(Cl)c1)c1ccccc1`, the Activity result in the data set on Mus musculus [1] and with Mus musculus [2] was “Non-toxic” throughout. Also, the outcome with Mus musculus [3], in the data set on Mus musculus [4], with Mus musculus [5] and in the data set with Mus musculus [6] was inactive.

Regarding `O=C(N/N=C/c1ccccc1F)c1ccncc1`, the Activity entry in the data set with Mus musculus [1] and in the data set with Mus musculus [2] was “Non-toxic” throughout. Further, the outcome in the data set with Mus musculus [3], with Mus musculus [4], with Mus musculus [5] and in the data set on Mus musculus [6] was inactive.

Turning to `O=C(N/N=C/c1ccccc1[N+](=O)[O-])c1ccncc1`, the Activity entry in the data set on Mus musculus [1] and with Mus musculus [2] was “Non-toxic” in each case. Besides, the result in the data set on Mus musculus [3], in the data set on Mus musculus [4], with Mus musculus [5] and in the data set on Mus musculus [6] was inactive.

For `O=C(N/N=C/c1ccc(O)cc1)c1ccccc1`, the Activity result in the data set on Mus musculus [1] and in the data set with Mus musculus [2] was “Non-toxic” in each case. Besides, the outcome in the data set on Mus musculus [3], with Mus musculus [4], in the data set with Mus musculus [5] and in the data set on Mus musculus [6] was inactive.

On to `Cc1ccc(C(=O)N/N=C/c2cccc(Cl)c2)cc1`, for which, in the data set with Mus musculus [7], the minimal effective dose worked out at 100 mg/kg. Also, the Activity entry with Mus musculus [1] and in the data set with Mus musculus [2] was “Non-toxic” each time. Also, the result in the data set with Mus musculus [3], with Mus musculus [4] and in the data set on Mus musculus [6] was inactive.

On to `O=C(N/N=C/c1cccc(Br)c1)c1ccncc1`, for which the Activity entry in the data set with Mus musculus [1] and in the data set with Mus musculus [2] was “Non-toxic” throughout. In addition, the outcome in the data set on Mus musculus [3], in the data set with Mus musculus [4], in the data set with Mus musculus [5] and in the data set on Mus musculus [6] was inactive.

In the case of `Cc1ccc(C(=O)N/N=C/c2ccc(Cl)cc2)cc1`, the Activity entry with Mus musculus [1] and in the data set on Mus musculus [2] was “Non-toxic” in each case. The outcome with Mus musculus [3], in the data set on Mus musculus [4], with Mus musculus [5] and with Mus musculus [6] was inactive.

As for `O=C(N/N=C/c1cccc(Br)c1)c1cccnc1`, the “Ratio TD50/ED50” value in the data set listed under Mus musculus [8] is greater than 11. The values for the minimal effective dose with Mus musculus [9], in the data set with Mus musculus [10] and in the data set on Mus musculus [12] were 35 mg/kg, 35 mg/kg and 100 mg/kg, respectively. Besides, the Activity result in the data set on Mus musculus [1] and with Mus musculus [2] was “Non-toxic” throughout. The result in the data set on Mus musculus [3], in the data set with Mus musculus [4] and in the data set on Mus musculus [5] was inactive. Besides, the ED50 in the data set with Mus musculus [11] was determined as 47.2 mg/kg. In [13], this compound had a TD50 greater than 520 mg/kg.

On to `O=C(N/N=C/c1cccc(Cl)c1)c1cccnc1`, for which the “Ratio TD50/ED50” value in the data set listed under Mus musculus [8] is given as greater than 6.25. Also, the minimal effective dose worked out at 40 mg/kg in the data set on Mus musculus [10] and 300 mg/kg in the data set on Mus musculus [12]. Besides, the Activity result with Mus musculus [1] and in the data set with Mus musculus [2] was “Non-toxic” throughout. Besides, the outcome with Mus musculus [3], in the data set on Mus musculus [4] and in the data set with Mus musculus [5] was inactive. In the data set with Mus musculus [11], the 50% effective dose (ED50) is 80 mg/kg. The TD50 in [13] was greater than 500 mg/kg.

Consider `O=C1NC(=O)C(c2ccccc2)(c2ccccc2)N1` [PHENYTOIN], for which the minimal effective dose with Mus musculus [7] and with Mus musculus [12] was 30 mg/kg throughout. Moreover, the result with Mus musculus [3] and with Mus musculus [4] was inactive. Moreover, the Activity in the data set on Mus musculus [14] and in the data set on Mus musculus [15] was 100 mg/kg in each case.

As to `O=C(N/N=C/c1ccc(O)cc1)c1cccnc1`, the Activity result in the data set with Mus musculus [1] and in the data set on Mus musculus [2] was “Non-toxic” throughout. In addition, the result in the data set with Mus musculus [3], in the data set with Mus musculus [4], with Mus musculus [5] and in the data set on Mus musculus [6] was inactive.

`O=C(N/N=C/c1ccc(Cl)cc1)c1ccccc1`: the Activity entry in the data set with Mus musculus [1] and with Mus musculus [2] was “Non-toxic” each time. The result with Mus musculus [3], with Mus musculus [4], in the data set with Mus musculus [5] and in the data set with Mus musculus [6] was inactive.

In the case of `Cc1ccc(C(=O)N/N=C/c2ccc([N+](=O)[O-])cc2)cc1`, the Activity entry with Mus musculus [1] and in the data set on Mus musculus [2] was “Non-toxic” each time. Further, the result in the data set with Mus musculus [3], with Mus musculus [4], in the data set with Mus musculus [5] and in the data set with Mus musculus [6] was inactive.

For `O=C(N/N=C/c1ccc(Cl)cc1)c1cccnc1`, the results for the “Ratio TD50/ED50” value in the data set filed under Mus musculus [8] and in the data set listed under Rattus norvegicus [18] were greater than 20 and greater than 10, respectively. Moreover, the ED50 with Rattus norvegicus [16] came to 31.4 mg/kg; in the data set on Mus musculus [11] it was 16.1 mg/kg. Moreover, the figures for the minimal effective dose in the data set with Mus musculus [9], with Mus musculus [10] and with Mus musculus [12] were 12.5 mg/kg, 12.5 mg/kg and 100 mg/kg, respectively. Besides, the Activity entry with Mus musculus [1] and in the data set on Mus musculus [2] was “Non-toxic” in each case. Also, the result in the data set on Mus musculus [3], in the data set on Mus musculus [4] and in the data set on Mus musculus [5] was inactive. Besides, the TD50 was greater than 320 mg/kg in [17] and greater than 325 mg/kg in data set [13].

Turning to `O=C(N/N=C/c1ccc(Cl)cc1)c1ccncc1`, the minimal effective dose in the data set on Mus musculus [7] and in the data set on Mus musculus [12] was 100 mg/kg throughout. Also, the result with Mus musculus [3] and in the data set on Mus musculus [4] was inactive. For the same compound, the Activity in the data set on Mus musculus [14] and with Mus musculus [15] was 100 mg/kg throughout.

Regarding `O=C(N/N=C/c1cccc(Cl)c1)c1ccncc1` [N'-(3-CHLOROBENZYLIDENE)ISONICOTINOHYDRAZIDE], the Activity entry with Mus musculus [1] and in the data set on Mus musculus [2] was “Non-toxic” throughout. Besides, the result in the data set on Mus musculus [3], with Mus musculus [4] and in the data set on Mus musculus [5] was inactive. Further, the minimal effective dose in the data set with Mus musculus [12] was found to be 300 mg/kg.
